Among the data in ChEMBL document CHEMBL1135903 (J Med Chem, 2002) are Ki values, retold here.

Values joined by “and” are separate entries in the source; they are usually repeats but may differ in a detail not shown here. Identical values can stand only once.

A word on the Ki: it is the dissociation constant of the complex between target and ligand, obtained from inhibition or displacement.

In experiment [1] the target is T1, Carbonic anhydrase 4 (Bos taurus, UniProt Q95323).
T1 sequence (Q95323 whole entry): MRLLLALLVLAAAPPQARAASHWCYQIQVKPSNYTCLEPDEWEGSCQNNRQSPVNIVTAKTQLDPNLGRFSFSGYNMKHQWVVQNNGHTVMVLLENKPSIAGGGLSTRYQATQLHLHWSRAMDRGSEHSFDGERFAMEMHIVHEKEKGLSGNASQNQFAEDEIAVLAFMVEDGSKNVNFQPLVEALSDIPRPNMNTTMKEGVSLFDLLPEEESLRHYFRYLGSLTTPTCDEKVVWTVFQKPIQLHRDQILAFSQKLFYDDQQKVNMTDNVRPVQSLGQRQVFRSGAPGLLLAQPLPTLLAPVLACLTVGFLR
Description: Inhibitory activity against bovine carbonic anhydrase IV

Experiment [2] concerns the target Carbonic anhydrase 1 (Homo sapiens, UniProt P00915).
Description: Inhibitory activity against Human carbonic anhydrase I

Carbonic anhydrase 1, sequence (P00915 whole entry): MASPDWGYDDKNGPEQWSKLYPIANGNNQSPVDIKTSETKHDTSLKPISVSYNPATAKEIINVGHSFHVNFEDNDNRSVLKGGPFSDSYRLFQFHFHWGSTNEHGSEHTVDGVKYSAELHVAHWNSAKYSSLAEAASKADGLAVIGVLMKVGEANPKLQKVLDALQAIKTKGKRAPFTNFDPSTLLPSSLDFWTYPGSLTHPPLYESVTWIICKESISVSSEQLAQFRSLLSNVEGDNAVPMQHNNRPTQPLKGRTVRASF

Molecule `NS(=O)(=O)c1ccc(NC(=O)CN(CCN(CCN(CC(=O)O)CC(=O)Nc2ccc(S(N)(=O)=O)cc2I)CC(=O)O)CC(=O)O)c(I)c1` showed a Ki in experiment [1] of 24 nM.
Turning to `NS(=O)(=O)c1ccc(CCNC(=O)CN(CCN(CC(=O)O)c2ccccc2O)c2ccccc2O)cc1`, the Ki is 215 nM in experiment [1] and 1050 nM in experiment [2].
Turning to `NS(=O)(=O)c1nnc(NC(=O)CCNC(=O)CN(CCN(CC(=O)O)CC(=O)O)CC(=O)O)s1`, the Ki in experiment [1] stood at 23 nM; in experiment [2] it was 200 nM.
Taken in the same sequence, the figures for `NS(=O)(=O)c1ccc(NC(=O)CN(CC(=O)O)CC(=O)O)c(I)c1` were 110 nM and 510 nM.
`NS(=O)(=O)c1cccc(NC(=O)CN(CCN(CC(=O)O)CC(=O)Nc2cccc(S(N)(=O)=O)c2)CC(=O)O)c1` had a Ki in experiment [1] of 620 nM.
Regarding `NS(=O)(=O)c1cc(S(N)(=O)=O)c(NC(=O)CN(CCN(CC(=O)O)CC(=O)Nc2cc(Cl)c(S(N)(=O)=O)cc2S(N)(=O)=O)CC(=O)O)cc1Cl`, the Ki in experiment [1] came out at 69 nM; in experiment [2], 72 nM.
For the molecule `NS(=O)(=O)c1nc2ccc(OC(=O)CN(CCN(CCN(CC(=O)O)CC(=O)Oc3ccc4nc(S(N)(=O)=O)sc4c3)CC(=O)O)CC(=O)O)cc2s1`, the Ki is 4 nM and 5 nM in experiment [1]; 16 nM in experiment [2].
On to `NS(=O)(=O)c1ccc(NC(=O)CN(CCOCCOCCN(CC(=O)O)CC(=O)O)CC(=O)O)c(F)c1`, for which the Ki in experiment [1] amounted to 31 nM; in experiment [2], 210 nM.
Taken in the same sequence, the figures for `NS(=O)(=O)c1ccc(CCNC(=O)CN(CC(=O)O)CC(=O)O)cc1` were 240 nM and 3300 nM.
Taken in the same sequence, the figures for `NS(=O)(=O)c1ccc(CNC(=O)CN(CCOCCOCCN(CC(=O)O)CC(=O)NCc2ccc(S(N)(=O)=O)cc2)CC(=O)O)cc1` were 16 nM and 35 nM.
Take `NS(=O)(=O)c1ccc(CNC(=O)CNCCNCC(=O)O)cc1`: the Ki amounted to 245 nM in experiment [1] and 1760 nM in experiment [2].
The corresponding values for `Cn1nc(S(N)(=O)=O)s/c1=N/C(=O)CN(CCN(CCN(CC(=O)O)CC(=O)/N=c1/sc(S(N)(=O)=O)nn1C)CC(=O)O)CC(=O)O` are 5 nM and 43 nM.
The corresponding values for `NS(=O)(=O)c1nc2ccc(OCCOC(=O)CN(CCOCCOCCN(CC(=O)O)CC(=O)O)CC(=O)O)cc2s1` are 6 nM and 30 nM.
With `NS(=O)(=O)c1nc2ccc(OC(=O)CN(CCOCCOCCN(CC(=O)O)CC(=O)Oc3ccc4nc(S(N)(=O)=O)sc4c3)CC(=O)O)cc2s1`, the Ki was 5 nM in experiment [1] and 21 nM in experiment [2].
`NS(=O)(=O)c1ccc(NC(=O)CN(CCN(CCN(CC(=O)O)CC(=O)O)CC(=O)O)CC(=O)O)c(I)c1` registered a Ki in experiment [1] of 29 nM.
Same read-out and setting: to `NS(=O)(=O)c1nnc(NC(=O)CCNC(=O)CN(CCN(CCN(CC(=O)O)CC(=O)O)CC(=O)O)CC(=O)O)s1` belongs 16 nM; to `NS(=O)(=O)c1cc(S(N)(=O)=O)c(NC(=O)CN(CCN(CCN(CC(=O)O)CC(=O)O)CC(=O)O)CC(=O)O)cc1Cl`, 52 nM; to `NS(=O)(=O)c1ccc(CNC(=O)CN(CCN(CCN(CC(=O)O)CC(=O)NCc2ccc(S(N)(=O)=O)cc2)CC(=O)O)CC(=O)O)cc1` [listing 1 of 2 here], 37 nM.
Same read-out and setting: in the case of `NS(=O)(=O)c1ccc(CCOC(=O)CN(CCN(CCN(CC(=O)O)CC(=O)OCCc2ccc(S(N)(=O)=O)cc2)CC(=O)O)CC(=O)O)cc1` it was 115 nM; in that of `NS(=O)(=O)c1ccc(NC(=O)CN(CCN(CC(=O)O)CC(=O)Nc2ccc(S(N)(=O)=O)cc2)CC(=O)O)cc1` [listing 1 of 2 here], 210 nM; in that of `NS(=O)(=O)c1nnc(NC(=O)CN(CCN(CCN(CC(=O)O)CC(=O)Nc2nnc(S(N)(=O)=O)s2)CC(=O)O)CC(=O)O)s1`, 4 nM.
Still for that read-out and setting: to `NS(=O)(=O)c1ccc(NC(=O)CN(CCN(CCN(CC(=O)O)CC(=O)O)CC(=O)O)CC(=O)O)c(Br)c1` belongs 27 nM; to `NS(=O)(=O)c1cc(S(N)(=O)=O)c(NC(=O)CN(CCN(CCN(CC(=O)O)CC(=O)Nc2cc(Cl)c(S(N)(=O)=O)cc2S(N)(=O)=O)CC(=O)O)CC(=O)O)cc1Cl`, 41 nM; to `Cn1nc(S(N)(=O)=O)s/c1=N/C(=O)CN(CCN(CC(=O)O)CC(=O)/N=c1/sc(S(N)(=O)=O)nn1C)CC(=O)O`, 8 nM.
In experiment [1], `NS(=O)(=O)c1ccc(NC(=O)CN(CCN(CC(=O)O)CC(=O)Nc2ccc(S(N)(=O)=O)cc2)CC(=O)O)cc1` [listing 2 of 2 here] had a Ki of 230 nM.
Regarding `NS(=O)(=O)c1cc(S(N)(=O)=O)c(NC(=O)CN(CCN(CCN(CC(=O)O)CC(=O)Nc2c(S(N)(=O)=O)cc(S(N)(=O)=O)c(Cl)c2Cl)CC(=O)O)CC(=O)O)c(Cl)c1Cl`, the Ki in experiment [1] came to 25 nM.
Regarding `NS(=O)(=O)c1ccc(CCNC(=O)CN(CCN(CCN(CC(=O)O)CC(=O)NCCc2ccc(S(N)(=O)=O)cc2)CC(=O)O)CC(=O)O)cc1` [listing 1 of 2 here], the affinity in experiment [1] corresponds to a Ki of 16 nM.
Same read-out and setting: in the case of `NS(=O)(=O)c1cc(S(N)(=O)=O)c(NC(=O)CN(CCN(CCN(CC(=O)O)CC(=O)O)CC(=O)O)CC(=O)O)c(Cl)c1Cl` it was 36 nM; in that of `NS(=O)(=O)c1nnc(NC(=O)CN(CCN(CC(=O)O)CC(=O)Nc2nnc(S(N)(=O)=O)s2)CC(=O)O)s1` [listing 1 of 2 here], 5 nM; in that of `NS(=O)(=O)c1ccc(CNC(=O)CN(CCN(CCN(CC(=O)O)CC(=O)O)CC(=O)O)CC(=O)O)cc1`, 40 nM.
Consider `NS(=O)(=O)c1nc2ccc(OCCOC(=O)CN(CCN(CCN(CC(=O)O)CC(=O)O)CC(=O)O)CC(=O)O)cc2s1`, for which the Ki in experiment [1] stood at 5 nM.
Same read-out and setting: in the case of `NS(=O)(=O)c1ccc(NC(=O)CN(CCN(CCN(CC(=O)O)CC(=O)Nc2ccc(S(N)(=O)=O)cc2Cl)CC(=O)O)CC(=O)O)c(Cl)c1` it was 27 nM; in that of `NS(=O)(=O)c1ccc(CCNC(=O)CN(CCN(CC(=O)O)CC(=O)NCCc2ccc(S(N)(=O)=O)cc2)CC(=O)O)cc1` [listing 1 of 2 here], 13 nM; in that of `NS(=O)(=O)c1cccc(NC(=O)CN(CCN(CCN(CC(=O)O)CC(=O)Nc2cccc(S(N)(=O)=O)c2)CC(=O)O)CC(=O)O)c1`, 425 nM.
As to `NS(=O)(=O)c1ccc(CCOC(=O)CN(CCN(CCN(CC(=O)O)CC(=O)O)CC(=O)O)CC(=O)O)cc1`, in experiment [1], affinity was put at a Ki of 190 nM.
Consider `NS(=O)(=O)c1ccc(CCNC(=O)CN(CCN(CCN(CC(=O)O)CC(=O)NCCc2ccc(S(N)(=O)=O)cc2)CC(=O)O)CC(=O)O)cc1` [listing 2 of 2 here], for which, in experiment [1], the Ki amounted to 25 nM.
For the molecule `NS(=O)(=O)c1ccc(NC(=O)CN(CCN(CCN(CC(=O)O)CC(=O)O)CC(=O)O)CC(=O)O)c(Cl)c1`, the Ki in experiment [1] turned out to be 32 nM.
The same measure, in the same setting: to `NS(=O)(=O)c1nc2ccc(OC(=O)CN(CCN(CCN(CC(=O)O)CC(=O)O)CC(=O)O)CC(=O)O)cc2s1` belongs 6 nM; to `NS(=O)(=O)c1ccc(CNC(=O)CN(CCN(CCN(CC(=O)O)CC(=O)NCc2ccc(S(N)(=O)=O)cc2)CC(=O)O)CC(=O)O)cc1` [listing 2 of 2 here], 21 nM.
Still for that read-out and setting: in the case of `NS(=O)(=O)c1ccc(NNC(=O)CN(CCN(CCN(CC(=O)O)CC(=O)NNc2ccc(S(N)(=O)=O)cc2)CC(=O)O)CC(=O)O)cc1` it was 430 nM.
For `NS(=O)(=O)c1ccc(NC(=O)CN(CCN(CCN(CC(=O)O)CC(=O)Nc2ccc(S(N)(=O)=O)cc2Br)CC(=O)O)CC(=O)O)c(Br)c1`, the affinity in experiment [1] corresponds to a Ki of 21 nM.
Same read-out and setting: in the case of `NS(=O)(=O)c1nc2ccc(NC(=O)CN(CCN(CCN(CC(=O)O)CC(=O)Nc3ccc4nc(S(N)(=O)=O)sc4c3)CC(=O)O)CC(=O)O)cc2s1` it was 6 nM; in that of `NS(=O)(=O)c1nnc(NC(=O)CN(CCN(CC(=O)O)CC(=O)Nc2nnc(S(N)(=O)=O)s2)CC(=O)O)s1` [listing 2 of 2 here], 12 nM; in that of `NS(=O)(=O)c1ccccc1NC(=O)CN(CCN(CCN(CC(=O)O)CC(=O)Nc1ccccc1S(N)(=O)=O)CC(=O)O)CC(=O)O`, 330 nM.
Regarding `NS(=O)(=O)c1nc2ccc(NC(=O)CN(CCN(CCN(CC(=O)O)CC(=O)O)CC(=O)O)CC(=O)O)cc2s1`, the affinity in experiment [1], expressed as Ki, was 9 nM.
`NS(=O)(=O)c1ccc(CCNC(=O)CN(CCN(CCN(CC(=O)O)CC(=O)O)CC(=O)O)CC(=O)O)cc1` gave a Ki in experiment [1] of 36 nM.
Same read-out and setting: in the case of `Cn1nc(S(N)(=O)=O)s/c1=N/C(=O)CN(CCN(CCN(CC(=O)O)CC(=O)O)CC(=O)O)CC(=O)O` it was 19 nM; in that of `NS(=O)(=O)c1ccc(COC(=O)CN(CCN(CCN(CC(=O)O)CC(=O)O)CC(=O)O)CC(=O)O)cc1`, 265 nM.
In experiment [1], `NS(=O)(=O)c1ccc(NNC(=O)CN(CCN(CCN(CC(=O)O)CC(=O)O)CC(=O)O)CC(=O)O)cc1` had a Ki of 630 nM.
Same read-out and setting: in the case of `NS(=O)(=O)c1nnc(NC(=O)CCNC(=O)CN(CCN(CCN(CC(=O)O)CC(=O)NCCC(=O)Nc2nnc(S(N)(=O)=O)s2)CC(=O)O)CC(=O)O)s1` it was 8 nM; in that of `NS(=O)(=O)c1ccc(CCNC(=O)CN(CCN(CC(=O)O)CC(=O)NCCc2ccc(S(N)(=O)=O)cc2)CC(=O)O)cc1` [listing 2 of 2 here], 54 nM; in that of `NS(=O)(=O)c1ccc(CNC(=O)CN(CCN(CC(=O)O)CC(=O)NCc2ccc(S(N)(=O)=O)cc2)CC(=O)O)cc1` [listing 1 of 2 here], 62 nM.
Same read-out and setting: in the case of `NS(=O)(=O)c1ccc(CNC(=O)CN(CCN(CC(=O)O)CC(=O)NCc2ccc(S(N)(=O)=O)cc2)CC(=O)O)cc1` [listing 2 of 2 here] it was 10 nM.
For the molecule `NS(=O)(=O)c1ccc(NC(=O)CN(CCN(CCN(CC(=O)O)CC(=O)Nc2ccc(S(N)(=O)=O)cc2)CC(=O)O)CC(=O)O)cc1`, the affinity in experiment [1], expressed as Ki, was 100 nM.
Same read-out and setting: to `NS(=O)(=O)c1ccc(NC(=O)CN(CCN(CCN(CC(=O)O)CC(=O)Nc2ccc(S(N)(=O)=O)cc2F)CC(=O)O)CC(=O)O)c(F)c1` belongs 18 nM; to `NS(=O)(=O)c1ccc(COC(=O)CN(CCN(CCN(CC(=O)O)CC(=O)OCc2ccc(S(N)(=O)=O)cc2)CC(=O)O)CC(=O)O)cc1`, 170 nM; to `NS(=O)(=O)c1ccc(NC(=O)CN(CCN(CCN(CC(=O)O)CC(=O)O)CC(=O)O)CC(=O)O)c(F)c1`, 29 nM.
The same measure, in the same setting: in the case of `NS(=O)(=O)c1ccccc1NC(=O)CN(CCN(CCN(CC(=O)O)CC(=O)O)CC(=O)O)CC(=O)O` it was 550 nM; in that of `NS(=O)(=O)c1cccc(NC(=O)CN(CCN(CCN(CC(=O)O)CC(=O)O)CC(=O)O)CC(=O)O)c1`, 500 nM.
